{
  "source": "paper PMC8450872",
  "about": "(Human Reproduction (Oxford, England), 2021)",
  "biological_target": "CatSper (Homo sapiens, UniProt Q7RTX7+Q86XQ3+Q8NEC5+Q96P56)",
  "sequence (Q96P56 whole entry)": "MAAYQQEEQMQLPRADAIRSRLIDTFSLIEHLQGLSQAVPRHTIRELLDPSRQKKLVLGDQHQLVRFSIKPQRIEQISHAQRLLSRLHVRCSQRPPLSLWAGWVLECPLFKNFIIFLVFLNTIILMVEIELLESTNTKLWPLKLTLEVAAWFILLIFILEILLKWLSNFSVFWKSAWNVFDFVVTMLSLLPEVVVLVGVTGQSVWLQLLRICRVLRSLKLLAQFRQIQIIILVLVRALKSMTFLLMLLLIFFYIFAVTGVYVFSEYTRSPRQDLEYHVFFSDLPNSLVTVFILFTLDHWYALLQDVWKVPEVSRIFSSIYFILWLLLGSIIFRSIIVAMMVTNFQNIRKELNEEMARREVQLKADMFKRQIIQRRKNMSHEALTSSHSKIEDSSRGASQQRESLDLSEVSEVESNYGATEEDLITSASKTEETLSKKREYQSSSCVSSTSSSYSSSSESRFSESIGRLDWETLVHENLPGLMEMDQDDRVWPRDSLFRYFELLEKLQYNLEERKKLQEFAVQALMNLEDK",
  "sequence (Q8NEC5 whole entry)": "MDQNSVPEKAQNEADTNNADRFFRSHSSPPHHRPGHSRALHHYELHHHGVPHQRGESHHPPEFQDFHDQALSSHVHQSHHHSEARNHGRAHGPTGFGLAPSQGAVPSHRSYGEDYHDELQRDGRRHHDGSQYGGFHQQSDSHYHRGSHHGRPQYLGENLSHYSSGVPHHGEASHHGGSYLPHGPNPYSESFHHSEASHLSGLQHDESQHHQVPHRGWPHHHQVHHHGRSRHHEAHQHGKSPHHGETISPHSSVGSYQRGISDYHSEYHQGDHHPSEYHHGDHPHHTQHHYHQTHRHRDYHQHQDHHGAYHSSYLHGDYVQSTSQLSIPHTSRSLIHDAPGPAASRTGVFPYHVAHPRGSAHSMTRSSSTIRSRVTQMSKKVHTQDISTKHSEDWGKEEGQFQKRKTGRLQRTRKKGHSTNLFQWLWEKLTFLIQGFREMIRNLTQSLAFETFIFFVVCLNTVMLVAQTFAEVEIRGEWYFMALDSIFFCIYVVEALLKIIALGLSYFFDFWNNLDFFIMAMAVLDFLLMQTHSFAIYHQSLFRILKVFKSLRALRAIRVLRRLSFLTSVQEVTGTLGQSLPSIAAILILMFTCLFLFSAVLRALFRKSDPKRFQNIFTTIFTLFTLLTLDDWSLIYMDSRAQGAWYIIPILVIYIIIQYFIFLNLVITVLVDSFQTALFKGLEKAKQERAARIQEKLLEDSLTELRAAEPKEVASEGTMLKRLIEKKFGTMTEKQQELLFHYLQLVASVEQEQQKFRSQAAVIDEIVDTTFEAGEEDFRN",
  "sequence (Q86XQ3 whole entry)": "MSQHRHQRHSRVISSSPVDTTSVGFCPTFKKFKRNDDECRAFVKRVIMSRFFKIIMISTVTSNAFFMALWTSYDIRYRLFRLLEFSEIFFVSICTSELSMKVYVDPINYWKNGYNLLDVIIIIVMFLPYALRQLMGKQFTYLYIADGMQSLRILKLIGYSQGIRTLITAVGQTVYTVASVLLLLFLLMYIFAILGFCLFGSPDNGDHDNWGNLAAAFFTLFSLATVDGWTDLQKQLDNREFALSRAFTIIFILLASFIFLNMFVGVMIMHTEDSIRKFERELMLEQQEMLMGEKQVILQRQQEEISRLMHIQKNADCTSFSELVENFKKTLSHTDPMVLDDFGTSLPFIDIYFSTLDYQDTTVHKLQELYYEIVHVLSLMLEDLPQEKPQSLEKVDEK",
  "sequence (Q7RTX7 whole entry)": "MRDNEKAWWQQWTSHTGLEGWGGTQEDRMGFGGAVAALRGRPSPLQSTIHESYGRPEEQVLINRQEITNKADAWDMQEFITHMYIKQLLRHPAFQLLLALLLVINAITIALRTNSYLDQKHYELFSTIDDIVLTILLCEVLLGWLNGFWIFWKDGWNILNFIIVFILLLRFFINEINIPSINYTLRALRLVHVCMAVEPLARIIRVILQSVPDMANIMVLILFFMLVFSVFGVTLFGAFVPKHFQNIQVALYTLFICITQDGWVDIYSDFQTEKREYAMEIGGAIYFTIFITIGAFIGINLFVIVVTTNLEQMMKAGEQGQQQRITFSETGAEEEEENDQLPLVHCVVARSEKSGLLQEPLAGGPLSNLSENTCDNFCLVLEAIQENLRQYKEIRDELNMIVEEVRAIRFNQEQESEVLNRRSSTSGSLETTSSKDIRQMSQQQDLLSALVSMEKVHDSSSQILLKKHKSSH",
  "experiment": "whole-cell patch clamp of human sperm",
  "assay_type": "cell-based",
  "data": [
    {"smiles": "CN[C@H]1CC[C@@H](c2ccc(Cl)c(Cl)c2)c2ccccc21", "note": "[Sertraline]", "values": [
      {"measurement": "IC50", "value": "4.62 ± 1.18", "unit": "µM"}
    ]}
  ]
}
